What all share (format): in vivo
One experiment relates to indian jointvetch. Kind of experiment: Herbicidal activity test against upland field weeds (foliar treatment test). The arrangement: key to Foliar treatment herbicidal activity, Indian jointvetch: 0 (no control); 100 (complete control). To be noted: 50 g ai/ha, scale 0-100. Summed up: (§1)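 Weeds were raised from seed or rootstocks in horticultural soil in a greenhouse (30±5° C., 14/10 h light/dark), then foliage was hand-sprayed with compound at 50 or 75 g a.i./ha in 50% acetone with 0.1% Tween-20. Control was scored visually 0–100 against untreated plants after 14 days, or 21 if needed.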

Another experiment has as its system bindweed. The description is as above. The arrangement: key to Foliar treatment herbicidal activity, Bindweed: 0 (no control); 100 (complete control). To be noted: 50 g ai/ha, scale 0-100. In a few lines: as §1
For another experiment, the system named is black nightshade. Kind of experiment: Herbicidal activity test against upland field weeds (soil treatment test). Also on record: key to Soil treatment herbicidal activity, black nightshade: 0 (no control); 100 (complete control). The conditions noted are these: 50 g ai/ha, scale 0 (no control) to 100 (complete control). In a few lines:
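Pre-emergence test: seeds or rootstocks were sown in fertilized sandy loam, and the next day the soil surface was sprayed with compound at 50 or 75 g a.i./ha in 50% acetone/0.1% Tween-20. Plants were grown in a greenhouse (30±5 °C, 14/10 h light/dark), then visually scored 0–100 against untreated at 14 d (21 d if needed).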

Consider `CCOC(=O)OC(C)n1nnn(C)c1=NC(=O)c1ccc(C(F)(F)F)nc1CSCc1nnn(C)n1` (centres unmarked) [Compound No. 4-10, ethyl (1-(4-methyl-5-((2-((((2-methyl-2H-tetrazol-5-yl)methyl)thio)methyl)-6-(trifluoromethyl)nicotinoyl)imino)-4,5-dihydro-1H-tetrazol-1-yl)ethyl)carbonate], for which the “Foliar treatment herbicidal activity, Indian jointvetch” value in the experiment on indian jointvetch was found to be 98. In the experiment with bindweed, the “Foliar treatment herbicidal activity, Bindweed” value is 100. In addition, the “Soil treatment herbicidal activity, black nightshade” value (“Soil treatment herbicidal activity” for short) in the experiment on black nightshade was determined as 100.

For the molecule `CON(Cc1nnn(C)n1)Cc1nc(C(F)(F)F)ccc1C(=O)Nc1nnnn1C` [Compound No. 2-97, 2-((methoxy((2-methyl-2H-tetrazol-5-yl)methyl)amino)methyl)-N-(1-methyl-1H-tetrazol-5-yl)-6-(trifluoromethyl)nicotinamide], the results for the pest or weed control at 50 g/ha in the experiment on indian jointvetch and in the experiment with bindweed were 95% and 80%, respectively.

For `CON(Cc1nnn(C)n1)c1nc(C(F)(F)F)ccc1C(=O)Nc1nnnn1C` [Compound No. 2-30, 2-(methoxy((2-methyl-2H-tetrazol-5-yl)methyl)amino)-N-(1-methyl-1H-tetrazol-5-yl)-6-(trifluoromethyl)nicotinamide], the “Foliar treatment herbicidal activity, Indian jointvetch” value in the experiment on indian jointvetch worked out at 100. Also, the pest or weed control at 50 g/ha in the experiment on bindweed stood at 60%. In addition, in the experiment with black nightshade, the “Soil treatment herbicidal activity” value came out at 100.

For `Cn1nnnc1NC(=O)c1ccc(C(F)(F)F)nc1OCc1nnnn1C(F)F` [Compound No. 1-26, 2-((1-(difluoromethyl)-1H-tetrazol-5-yl)methoxy)-N-(1-methyl-1H-tetrazol-5-yl)-6-(trifluoromethyl)nicotinamide], the pest or weed control at 50 g/ha in the experiment with indian jointvetch came out at 70%; with bindweed, 60%. Also, the “Soil treatment herbicidal activity” value with black nightshade came to 100.

Take `Cn1nnc(CSCc2nc(C(F)(F)F)ccc2C(=O)N(c2nnnn2C)S(C)(=O)=O)n1` [Compound No. 2-110, N-(1-methyl-1H-tetrazol-5-yl)-2-((((2-methyl-2H-tetrazol-5-yl)methyl)thio)methyl)-N-(methylsulfonyl)-6-(trifluoromethyl)nicotinamide]: the pest or weed control at 50 g/ha in the experiment on indian jointvetch came to 95%; in the experiment with bindweed, 98%.

Regarding `Cn1nnc(COCc2nc(C(F)(F)F)ccc2C(=S)Nc2nnnn2C)n1` [Compound No. 2-106, N-(1-methyl-1H-tetrazol-5-yl)-2-(((2-methyl-2H-tetrazol-5-yl)methoxy)methyl)-6-(trifluoromethyl)pyridin-3-carbothioamide], the pest or weed control at 50 g/ha came out at 80% with indian jointvetch and 40% in the experiment on bindweed.

For the molecule `Cn1nnc(COCc2nc(C(F)F)ccc2C(=O)Nc2nnnn2C)n1` [Compound No. 2-84, 6-(difluoromethyl)-N-(1-methyl-1H-tetrazol-5-yl)-2-(((2-methyl-2H-tetrazol-5-yl)methoxy)methyl)nicotinamide], the pest or weed control at 50 g/ha in the experiment on indian jointvetch is 70%; in the experiment with bindweed, 60%. For the same molecule, in the experiment on black nightshade, the “Soil treatment herbicidal activity” value was 100.

In the case of `Cn1nnc(COCc2nc(C(F)(F)Cl)ccc2C(=O)Nc2nnnn2C)n1` [Compound No. 2-78, 6-(chlorodifluoromethyl)-N-(1-methyl-1H-tetrazol-5-yl)-2-(((2-methyl-2H-tetrazol-5-yl)methoxy)methyl)nicotinamide], the pest or weed control at 50 g/ha in the experiment on indian jointvetch is 80%; in the experiment with bindweed it was 40%.

Take `Cn1nnc(COCc2nc(C(F)(F)F)ccc2C(=O)Nc2nnnn2C)n1` [Compound No. 2-59, N-(1-methyl-1H-tetrazol-5-yl)-2-(((2-methyl-2H-tetrazol-5-yl)methoxy)methyl)-6-(trifluoromethyl)nicotinamide]: the pest or weed control at 50 g/ha in the experiment with indian jointvetch came out at 98%; with bindweed, 90%. In addition, the “Soil treatment herbicidal activity” value in the experiment on black nightshade was found to be 100.

`Cn1nnnc1COc1nc(C(F)(F)F)ccc1C(=O)Nc1nnnn1C` [Compound No. 1-1, N-(1-methyl-1H-tetrazol-5-yl)-2-((1-methyl-1H-tetrazol-5-yl)methoxy)-6-(trifluoromethyl)nicotinamide] had a pest or weed control at 50 g/ha in the experiment on indian jointvetch of 30%. In the experiment on black nightshade, the “Soil treatment herbicidal activity” value is listed as 100.

On to `Cn1nnc(COCc2nc(C(F)(F)C(F)(F)F)ccc2C(=O)Nc2nnnn2C)n1` [Compound No. 2-81, N-(1-methyl-1H-tetrazol-5-yl)-2-(((2-methyl-2H-tetrazol-5-yl)methoxy)methyl)-6-(perfluoroethyl)nicotinamide], for which the pest or weed control at 50 g/ha with indian jointvetch was 80%; in the experiment on bindweed, 60%.

As for `Cc1nc(COCc2nc(C(F)(F)F)ccc2C(=O)Nc2nnnn2C)nn1C` [Compound No. 2-116, 2-(((1,5-dimethyl-1H-1,2,4-triazol-3-yl)methoxy)methyl)-N-(1-methyl-1H-tetrazol-5-yl)-6-(trifluoromethyl)nicotinamide], the results for the pest or weed control at 50 g/ha in the experiment with indian jointvetch and in the experiment with bindweed were 40% and 90%, respectively.

Turning to `Cn1ncnc1COCc1nc(C(F)(F)F)ccc1C(=O)Nc1nnnn1C` [Compound No. 1-102, 2-(((1-methyl-1H-1,2,4-triazol-5-yl)methoxy)methyl)-N-(1-methyl-1H-tetrazol-5-yl)-6-(trifluoromethyl)nicotinamide], the pest or weed control at 50 g/ha was 80% in the experiment on indian jointvetch and 60% with bindweed.

The molecule `Cn1nnc(COCc2nc(C(F)(F)F)ccc2C(=O)N(C(=O)c2ccccc2)c2nnnn2C)n1` [Compound No. 2-68, N-benzoyl-N-(1-methyl-1H-tetrazol-5-yl)-2-(((2-methyl-2H-tetrazol-5-yl)methoxy)methyl)-6-(trifluoromethyl)nicotinamide] displayed a pest or weed control at 50 g/ha in the experiment on indian jointvetch of 98%. In addition, in the experiment on bindweed, the “Foliar treatment herbicidal activity, Bindweed” value turned out to be 100.

As to `Cn1nc(COCc2nc(C(F)(F)F)ccc2C(=O)Nc2nnnn2C)nc1C#N` [Compound No. 2-134, 2-(((5-cyano-1-methyl-1H-1,2,4-triazol-3-yl)methoxy)methyl)-N-(1-methyl-1H-tetrazol-5-yl)-6-(trifluoromethyl)nicotinamide], the pest or weed control at 50 g/ha in the experiment on indian jointvetch came out at 70%; in the experiment on bindweed, 98%.

As for `Cc1nc(COCc2nc(C(F)(F)F)ccc2C(=S)Nc2nnnn2C)nn1C` [Compound No. 2-117, 2-(((1,5-dimethyl-1H-1,2,4-triazol-3-yl)methoxy)methyl)-N-(1-methyl-1H-tetrazol-5-yl)-6-(trifluoromethyl)pyridin-3-carbothioamide], the pest or weed control at 50 g/ha in the experiment with indian jointvetch was determined as 40%; with bindweed, 70%.

Take `Cn1nnc(COCc2nc(C(F)(F)F)ccc2C(=O)N(c2nnnn2C)S(C)(=O)=O)n1` [Compound No. 2-69, N-(1-methyl-1H-tetrazol-5-yl)-2-(((2-methyl-2H-tetrazol-5-yl)methoxy)methyl)-N-(methylsulfonyl)-6-(trifluoromethyl)nicotinamide]: the pest or weed control at 50 g/ha with indian jointvetch came out at 80%; in the experiment with bindweed, 40%.

In the case of `Cn1nc(COCc2nc(C(F)(F)F)ccc2C(=O)Nc2nnnn2C)nc1Br` [Compound No. 2-136, 2-(((5-bromo-1-methyl-1H-1,2,4-triazol-3-yl)methoxy)methyl)-N-(1-methyl-1H-tetrazol-5-yl)-6-(trifluoromethyl)nicotinamide], the pest or weed control at 50 g/ha turned out to be 20% in the experiment with indian jointvetch and 50% in the experiment with bindweed.

The values are drawn from patent US12495798B2, “Nicotinamide compound and herbicidal composition comprising compound” (KOREA RESEARCH INSTITUTE OF CHEMICAL TECHNOLOGY, priority 2019, dated 2025).
